Reference: patent publication US9833497B2, “Human originated EGF domain proteins and use of the same” (CHENGDU SOURCEBIO LIMITED-LIABILITY COMPANY, priority 2013, dated 2017)

How the values were obtained:
Type in all cases: cell-based
E. coli DH5α = assay: Antibacterial activity: MIC and growth curve against E. coli DH5α in 96-well plate; conditions: minimal inhibitory concentration against E. coli DH5α; 96-well plate, 5×10^5 CFU/mL, 37° C., judged after 8 h
How it was run: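 Log-phase bacteria (OD600 ~0.5) resuspended in LB at 5×10^5 CFU/mL, exposed to recombinant protein at 50, 25, 12.5 μg/mL final in triplicate, 37 °C shaking at 175 rpm. OD600 read every 30 min; MIC is lowest concentration showing no growth.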

E. coli BL21 = assay: MIC against Gram-negative bacteria: E. coli BL21; conditions: for MIC (μg/mL) E. coli BL21 / MIC: 10 h cultivation at 37° C., E. coli BL21
How it was run: (§1)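 Growth inhibition by human EGF domain proteins was scored in LB liquid culture seeded at 5×10^5 CFU/mL. Protein was applied as a two-fold dilution series in triplicate, with shaking incubation at 37° C; MIC is the lowest concentration giving no growth.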

Pseudomonas aeruginosa = assay: MIC against Gram-negative bacteria: Pseudomonas aeruginosa; conditions: for MIC (μg/mL) P. aeruginosa / MIC: 10 h cultivation at 37° C., P. aeruginosa
How it was run: as §1

Klebsiella pneumonia = assay: MIC against Gram-negative bacteria: Klebsiella pneumonia; conditions: for MIC (μg/mL) K. pneumonia / MIC: 10 h cultivation at 37° C., K. pneumonia
How it was run: as §1

Enterobacter cloacae = assay: MIC against Gram-negative bacteria: Enterobacter cloacae; conditions: for MIC (μg/mL) E. cloacae / MIC: 10 h cultivation at 37° C., E. cloacae
How it was run: as §1

Aeromonas hydrophila = assay: MIC against Gram-negative bacteria: Aeromonas hydrophila; conditions: for MIC (μg/mL) A. hydrophila / MIC: 10 h cultivation at 37° C., A. hydrophila
How it was run: as §1

Citrobacter diversus = assay: MIC against Gram-negative bacteria: Citrobacter diversus; conditions: for MIC (μg/mL) C. diversus / MIC: 10 h cultivation at 37° C., C. diversus
How it was run: as §1

Moraxella catarrhalis = assay: MIC against Gram-negative bacteria: Moraxella catarrhalis; conditions: for MIC (μg/mL) M. catarrhalis / MIC: 10 h cultivation at 37° C., M. catarrhalis
How it was run: as §1

Proteus mirabilis = assay: MIC against Gram-negative bacteria: Proteus mirabilis; conditions: for MIC (μg/mL) P. mirabilis / MIC: 10 h cultivation at 37° C., P. mirabilis
How it was run: as §1

Proteus vulgaris = assay: MIC against Gram-negative bacteria: Proteus vulgaris; conditions: for MIC (μg/mL) P. vulgaris / MIC: 10 h cultivation at 37° C., P. vulgaris
How it was run: as §1

Serratia marcescens = assay: MIC against Gram-negative bacteria: Serratia marcescens; conditions: for MIC (μg/mL) S. marcescens / MIC: 10 h cultivation at 37° C., S. marcescens
How it was run: as §1

[1] = 96-well plate, 5×10^5 CFU/mL, 37° C., 10 h

| Substance | MIC (E. coli DH5α) [µg/mL] | MIC (μg/mL) E. coli BL21 (E. coli BL21; 5×10^5 CFU/mL) [µg/mL] | MIC (μg/mL) P. aeruginosa (Pseudomonas aeruginosa; 5×10^5 CFU/mL) [µg/mL] | MIC (μg/mL) K. pneumonia (Klebsiella pneumonia; 5×10^5 CFU/mL) [µg/mL] | MIC (μg/mL) E. cloacae (Enterobacter cloacae; 5×10^5 CFU/mL) [µg/mL] | MIC (μg/mL) A. hydrophila (Aeromonas hydrophila; 5×10^5 CFU/mL) [µg/mL] | MIC (μg/mL) C. diversus (Citrobacter diversus; 5×10^5 CFU/mL) [µg/mL] | MIC (μg/mL) M. catarrhalis (Moraxella catarrhalis; 5×10^5 CFU/mL) [µg/mL] | MIC (μg/mL) P. mirabilis (Proteus mirabilis; 5×10^5 CFU/mL) [µg/mL] | MIC (μg/mL) P. vulgaris (Proteus vulgaris; 5×10^5 CFU/mL) [µg/mL] | MIC (E. coli BL21) [µg/mL] | MIC (Pseudomonas aeruginosa) [µg/mL] | MIC (Klebsiella pneumonia) [µg/mL] | MIC (Enterobacter cloacae) [µg/mL] | MIC (Aeromonas hydrophila) [µg/mL] | MIC (Citrobacter diversus) [µg/mL] | MIC (Moraxella catarrhalis) [µg/mL] | MIC (Proteus mirabilis) [µg/mL] | MIC (Proteus vulgaris) [µg/mL] | MIC (Serratia marcescens) [µg/mL] | other results |
| --- | --- | --- | --- | --- | --- | --- | --- | --- | --- | --- | --- | --- | --- | --- | --- | --- | --- | --- | --- | --- | --- |
| PRT825 (FGPNCTHVCGCGQGAACDPVTGTCLCPPGRAGVRCE; listed as Homo sapiens) | 25 | 12.5 | 25 | 50 | 25 | 12.5 | 25 | 50 | 12.5 | 50 |  |  |  |  |  |  |  |  |  |  | MIC (μg/mL) S. marcescens (Serratia marcescens; 5×10^5 CFU/mL): 25 µg/mL |
| PRT937 (DIDECISKPCMNHGLCHNTQGSYMCECPPGFSGMDCE; listed as Homo sapiens) | 25 |  |  |  |  |  |  |  |  |  | 12.5 | 50 | 25 | 12.5 | 50 | 25 | 12.5 | 50 | 12.5 | 50 |  |
| PRT961 (DVDECASTPCRNGAKCVDQPDGYECRCAEGFEGTLCD; listed as Homo sapiens) | 12.5 |  |  |  |  |  |  |  |  |  | 25 | 100 | 25 | 12.5 | 12.5 | 25 | 25 | 50 | 12.5 | 25 |  |
| PRT758 (RVDHCAQQDHGCEQLCLNTEDSFVCQCSEGFLINEDLKTCS; listed as Homo sapiens) | 12.5 | 25 | 50 | 50 | 25 | 50 | 25 | 12.5 | 25 | 12.5 |  |  |  |  |  |  |  |  |  |  | MIC (μg/mL) S. marcescens (Serratia marcescens; 5×10^5 CFU/mL): 12.5 µg/mL |
| PRT1043 (HGPNCSQECRCHNGGLCDRFTGQCRCAPGYTGDRCR; listed as Homo sapiens) | 50 |  |  |  |  |  |  |  |  |  | 12.5 | 25 | 50 | 25 | 25 | 50 | 25 | 12.5 | 50 | 50 |  |
| PRT684 (APVLCPLICHNGGVCVKPDRCLCPPDFAGKFCQ; listed as Homo sapiens) | 12.5 |  |  |  |  |  |  |  |  |  |  |  |  |  |  |  |  |  |  |  | MIC E. coli BL21 (E. coli BL21; [1]): 25 µg/mL; MIC P. aeruginosa (Pseudomonas aeruginosa; [1]): 50 µg/mL; MIC K. pneumonia (Klebsiella pneumonia; [1]): 25 µg/mL; MIC E. cloacae (Enterobacter cloacae; [1]): 12.5 µg/mL; MIC A. hydrophila (Aeromonas hydrophila; [1]): 50 µg/mL; MIC C. diversus (Citrobacter diversus; [1]): 25 µg/mL; MIC M. catarrhalis (Moraxella catarrhalis; [1]): 12.5 µg/mL; MIC P. mirabilis (Proteus mirabilis; [1]): 25 µg/mL; MIC P. vulgaris (Proteus vulgaris; [1]): 50 µg/mL; MIC S. marcescens (Serratia marcescens; [1]): 12.5 µg/mL |
| PRT181 (RADPCAARPCAHGGRCYAHFSGLVCACAPGYMGARCE; listed as Homo sapiens) | 25 | 50 | 25 | 12.5 | 25 | 50 | 25 | 12.5 | 25 | 50 |  |  |  |  |  |  |  |  |  |  | MIC (μg/mL) S. marcescens (Serratia marcescens; 5×10^5 CFU/mL): 25 µg/mL |
| PRT1040 (AAHPCVRAPCAHGGSCRPRKEGYDCDCPLGFEGLHCQ; listed as Homo sapiens) | 12.5 |  |  |  |  |  |  |  |  |  | 50 | 50 | 25 | 50 | 12.5 | 50 | 25 | 50 | 25 | 50 |  |
